Key:
IgG3 = assay: Serum IgG3 in anti-IgD stimulated mice (two site sandwich ELISA, Assay D); type: in vivo, mouse (Balb/c female); details: 20 μg days 3 and 4
IgE [1] = assay: ED50 for inhibition of IgE calculated from the examples; type: in vivo, mouse; details: dose to achieve 50% inhibition of IgE
Protocol: From the data in the above examples, the effective dose of each prostaglandin to achieve 50% inhibition of IgE (ED50) was calculated.

IgE [2] = assay: Serum IgE response induced by FF1-4D5 + H∂A1 anti-IgD antibodies (ELISA, Assay A / Assay F); type: in vivo, mouse (Balb/c female); details: 20 μg days 3 and 4
Method in brief: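 Transient IgE response induced in female Balb/c mice (10–20 weeks) by a day-0 i.v. or s.c. injection of 100 μg each of anti-IgD FF1-4D5 and H.δA1. Serum IgE measured by sandwich ELISA (B1E3 capture, biotinylated R1E4 detection, avidin-biotin-HRP/ABTS), quantified against an IgE standard curve corrected for serum dilution.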

SMILES | inhibition of IgG3 (IgG3; Example 25) | IgG3 ± SD (IgG3; Table 14, day 8 (control 1538)) | ED50 IgE Inhibition (IgE [1]) | de novo IgE synthesis (IgE [2]; Example 25) | IgE ± SD (IgE [2]; Table 14, day 8 (control 6071)) | inhibition of IgG3 (IgG3; Example 23) | IgG3 ± SD (IgG3; Table 12, day 8 (control 584)) | de novo IgE synthesis (IgE [2]; Example 23) | IgE ± SD (IgE [2]; Table 12, day 8 (control 11398))
CCCCC(C)(O)C/C=C/[C@H]1[C@H](O)CC(=O)[C@@H]1CCCC(C)(C)CCC(=O)OC (mixture of isomers) [(±) methyl 11α,16-dihydroxy-4,4,16-trimethyl-9-oxoprost-13E-en-1-oate] | not IgG1, IgG2a, IgG3 and IgM | 2103 ± 616 µg/mL | 1.5 μg/mouse/TID | inhibit de novo IgE synthesis | < 800 ng/mL | – | – | – | –
CCCCC(C)(O)C/C=C/[C@H]1[C@H](O)CC(=O)[C@@H]1CC1CC1CCCC(=O)OC (relative stereo) [(±) methyl 2-[2-[3R-3α-hydroxy-2β-(4-hydroxy-4-methyl-1E-octenyl)-5-oxo-1α-cyclopentyl]methyl]cyclopropanebutanoate] | – | – | 9.0 μg/mouse/TID | – | – | not IgG1, IgG2a or IgG3 | 520 ± 39 µg/mL | inhibit de novo IgE synthesis | 2750 ± 318 ng/mL

Source: US5157052A, “Method for inhibiting IgE production” (priority 1990, dated 1992)
